Molecules are shown by their SMILES. Counter-ions that a name gives are not always drawn. A value given as a limit tells only on which side of the number the result lay.

A word on the pKa: it is the pH at which an ionisable group is half protonated. The IC50 is the point on the concentration scale where inhibition reaches its midpoint. As a reminder, the EC50 is the concentration that produces a half-maximal response.

Series [1] is described as follows: Dissociation constant, pKa of compound. It counts as physicochemical.
The next series has as its system BT-474. The series is described as follows: Cytotoxicity against human BT474 cells assessed as reduction in cell viability after 48 hrs by MTT assay. It is filed as functional, cell-based. Particulars: BT-474, 48 h. In general terms: Formazan colour is commonly taken as a measure of viable cells.
The target in series [2] is T1, Serine/threonine-protein kinase ULK2 (Homo sapiens, UniProt Q8IYT8).
T1 sequence (Q8IYT8 whole entry): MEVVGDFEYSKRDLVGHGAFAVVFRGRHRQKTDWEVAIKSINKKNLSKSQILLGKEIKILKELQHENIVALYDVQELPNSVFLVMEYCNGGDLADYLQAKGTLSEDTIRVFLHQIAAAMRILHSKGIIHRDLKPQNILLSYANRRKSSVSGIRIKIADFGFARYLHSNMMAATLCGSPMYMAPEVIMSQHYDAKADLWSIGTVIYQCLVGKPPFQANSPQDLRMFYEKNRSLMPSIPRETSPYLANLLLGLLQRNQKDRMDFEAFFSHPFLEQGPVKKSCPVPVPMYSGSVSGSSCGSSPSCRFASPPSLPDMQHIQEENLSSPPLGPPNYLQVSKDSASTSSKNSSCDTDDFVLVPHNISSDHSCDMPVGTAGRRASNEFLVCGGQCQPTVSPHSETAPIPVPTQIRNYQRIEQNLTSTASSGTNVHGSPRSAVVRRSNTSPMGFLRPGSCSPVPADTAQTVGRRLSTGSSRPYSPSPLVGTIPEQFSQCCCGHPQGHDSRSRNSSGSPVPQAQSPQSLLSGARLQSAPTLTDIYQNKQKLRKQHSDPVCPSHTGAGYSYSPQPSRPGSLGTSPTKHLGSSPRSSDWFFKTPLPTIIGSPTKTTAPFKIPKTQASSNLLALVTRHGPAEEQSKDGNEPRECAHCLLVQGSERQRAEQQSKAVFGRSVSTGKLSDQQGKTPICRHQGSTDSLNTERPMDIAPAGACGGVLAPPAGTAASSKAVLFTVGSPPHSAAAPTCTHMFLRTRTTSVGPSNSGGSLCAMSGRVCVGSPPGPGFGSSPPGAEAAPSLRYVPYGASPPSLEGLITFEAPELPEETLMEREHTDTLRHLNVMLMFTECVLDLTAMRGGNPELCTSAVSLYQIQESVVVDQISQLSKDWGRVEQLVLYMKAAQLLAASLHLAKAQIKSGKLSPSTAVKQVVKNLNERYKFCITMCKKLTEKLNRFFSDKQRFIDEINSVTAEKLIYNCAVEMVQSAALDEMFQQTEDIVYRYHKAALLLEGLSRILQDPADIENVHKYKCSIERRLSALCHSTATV
Put plainly: Inhibition of ULK2 (unknown origin).

Series [3] addresses T2, Serine/threonine-protein kinase ULK1 (Homo sapiens, UniProt O75385).
T2 sequence (O75385 whole entry): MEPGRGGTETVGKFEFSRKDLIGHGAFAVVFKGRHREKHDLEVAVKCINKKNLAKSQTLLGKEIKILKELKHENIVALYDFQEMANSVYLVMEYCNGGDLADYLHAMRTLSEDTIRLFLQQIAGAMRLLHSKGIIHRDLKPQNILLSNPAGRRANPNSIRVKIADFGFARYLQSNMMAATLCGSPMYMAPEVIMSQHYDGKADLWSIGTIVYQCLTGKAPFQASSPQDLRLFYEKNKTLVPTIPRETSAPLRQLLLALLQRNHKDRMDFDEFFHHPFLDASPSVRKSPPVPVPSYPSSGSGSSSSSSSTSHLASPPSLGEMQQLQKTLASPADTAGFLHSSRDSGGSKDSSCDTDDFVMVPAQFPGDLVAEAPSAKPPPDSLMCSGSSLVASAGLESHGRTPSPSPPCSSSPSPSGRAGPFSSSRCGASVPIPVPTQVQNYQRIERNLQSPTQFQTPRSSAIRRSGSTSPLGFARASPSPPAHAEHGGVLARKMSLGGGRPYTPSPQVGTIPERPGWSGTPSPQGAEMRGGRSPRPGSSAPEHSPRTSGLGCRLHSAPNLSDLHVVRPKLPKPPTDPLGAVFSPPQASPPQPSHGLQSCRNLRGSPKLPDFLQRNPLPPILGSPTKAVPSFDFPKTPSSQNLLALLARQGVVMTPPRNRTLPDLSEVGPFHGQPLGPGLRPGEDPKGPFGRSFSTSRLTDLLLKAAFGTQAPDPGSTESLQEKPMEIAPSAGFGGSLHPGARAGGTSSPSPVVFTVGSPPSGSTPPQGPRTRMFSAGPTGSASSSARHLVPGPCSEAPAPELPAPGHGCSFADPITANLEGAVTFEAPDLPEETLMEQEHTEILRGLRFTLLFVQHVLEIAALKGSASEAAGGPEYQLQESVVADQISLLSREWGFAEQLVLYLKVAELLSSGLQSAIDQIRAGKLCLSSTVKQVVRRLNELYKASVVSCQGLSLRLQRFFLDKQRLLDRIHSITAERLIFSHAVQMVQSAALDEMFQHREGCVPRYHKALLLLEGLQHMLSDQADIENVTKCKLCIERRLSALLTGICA

In series [4] the target is T1, Serine/threonine-protein kinase ULK2.
A further series deals with mTORC1 (Homo sapiens, UniProt P42345). It counts as protein-complex assay.
The target of the next series is mTORC2 (Homo sapiens, UniProt P42345). It is filed as protein-complex assay.
The target in series [5] is AMP-activated protein kinase (AMPK) alpha-1/beta-1/gamma-1 (Homo sapiens, UniProt P54619+Q13131+Q9Y478). Put plainly: Activation of recombinant human AMPK alpha1/beta1/gamma1 (unknown origin) using SAMS peptide as substrate preincubated for 20 mins followed by substrate and gamma-[32]P-ATP addition and measured after 30 mins by liquid scintillation counting method. It is filed as protein-complex assay.

The test system of another series is MDA-MB-231. Put plainly: Cytotoxicity against human MDA-MB-231 cells assessed as reduction in cell viability at 750 nM after 24 hrs by MTT assay relative to control. It counts as functional.
Series [6] addresses Phosphatidylinositol 4,5-bisphosphate 3-kinase catalytic subunit alpha isoform (Homo sapiens, UniProt P42336). Put plainly: Inhibition of PI3K p110alpha (unknown origin).
The target of series [7] is Phosphatidylinositol 4,5-bisphosphate 3-kinase catalytic subunit beta isoform (Homo sapiens, UniProt P42338). The series is described as follows: Inhibition of PI3K p110beta (unknown origin).
Series [8] addresses T3, Phosphatidylinositol 4,5-bisphosphate 3-kinase catalytic subunit delta isoform (Homo sapiens, UniProt O00329).
T3 sequence (O00329 whole entry): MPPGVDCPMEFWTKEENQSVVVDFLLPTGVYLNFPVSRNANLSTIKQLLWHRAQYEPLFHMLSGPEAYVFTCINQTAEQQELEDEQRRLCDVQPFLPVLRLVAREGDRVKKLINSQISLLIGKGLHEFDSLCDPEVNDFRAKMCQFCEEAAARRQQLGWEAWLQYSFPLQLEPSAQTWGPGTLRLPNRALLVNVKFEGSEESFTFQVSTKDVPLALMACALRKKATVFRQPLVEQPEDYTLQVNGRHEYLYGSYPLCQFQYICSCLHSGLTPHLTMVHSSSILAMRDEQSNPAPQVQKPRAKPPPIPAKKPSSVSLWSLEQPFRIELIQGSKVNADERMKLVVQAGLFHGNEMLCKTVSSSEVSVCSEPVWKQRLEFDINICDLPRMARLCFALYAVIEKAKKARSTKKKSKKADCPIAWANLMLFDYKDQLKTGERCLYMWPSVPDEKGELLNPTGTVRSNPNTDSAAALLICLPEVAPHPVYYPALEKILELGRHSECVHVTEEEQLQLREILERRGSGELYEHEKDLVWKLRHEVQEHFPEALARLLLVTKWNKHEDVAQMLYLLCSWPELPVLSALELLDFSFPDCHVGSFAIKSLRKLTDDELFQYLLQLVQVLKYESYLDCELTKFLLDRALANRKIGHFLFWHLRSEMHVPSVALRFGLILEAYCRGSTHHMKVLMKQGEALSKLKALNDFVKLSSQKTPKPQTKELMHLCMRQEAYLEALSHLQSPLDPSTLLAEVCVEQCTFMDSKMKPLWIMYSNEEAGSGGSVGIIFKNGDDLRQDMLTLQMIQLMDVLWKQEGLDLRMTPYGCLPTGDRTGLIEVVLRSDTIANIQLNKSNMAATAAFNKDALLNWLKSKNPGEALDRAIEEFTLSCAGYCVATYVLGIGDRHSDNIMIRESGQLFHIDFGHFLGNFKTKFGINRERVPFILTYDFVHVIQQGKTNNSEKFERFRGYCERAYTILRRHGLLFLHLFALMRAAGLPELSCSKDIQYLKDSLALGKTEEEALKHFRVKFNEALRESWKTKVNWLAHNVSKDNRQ
Put plainly: Inhibition of PI3K p110delta (unknown origin).

Another series relates to CNE-2. Put plainly: Antiproliferative activity against human CNE2 cells after 72 hrs by MTT assay. To be noted: CNE-2, 72 h. It is filed as functional, cell-based.
In series [9] the target is Phosphatidylinositol 4,5-bisphosphate 3-kinase catalytic subunit gamma isoform (Homo sapiens, UniProt P48736).
Another series deals with U2OS. The series is described as follows: Inhibition of autophagy in human U2OS cells stably expressing tfLC3. It counts as functional.
The nature of series [10]: Cytotoxicity in human U2OS cells incubated for 24 to 48 hrs by CellTiter Glo assay. To be noted: read-out: LD50 (the source's name). It is filed as cell-based.

Phosphatidylinositol 4,5-bisphosphate 3-kinase catalytic subunit beta isoform, sequence (P42338 whole entry, canonical isoform): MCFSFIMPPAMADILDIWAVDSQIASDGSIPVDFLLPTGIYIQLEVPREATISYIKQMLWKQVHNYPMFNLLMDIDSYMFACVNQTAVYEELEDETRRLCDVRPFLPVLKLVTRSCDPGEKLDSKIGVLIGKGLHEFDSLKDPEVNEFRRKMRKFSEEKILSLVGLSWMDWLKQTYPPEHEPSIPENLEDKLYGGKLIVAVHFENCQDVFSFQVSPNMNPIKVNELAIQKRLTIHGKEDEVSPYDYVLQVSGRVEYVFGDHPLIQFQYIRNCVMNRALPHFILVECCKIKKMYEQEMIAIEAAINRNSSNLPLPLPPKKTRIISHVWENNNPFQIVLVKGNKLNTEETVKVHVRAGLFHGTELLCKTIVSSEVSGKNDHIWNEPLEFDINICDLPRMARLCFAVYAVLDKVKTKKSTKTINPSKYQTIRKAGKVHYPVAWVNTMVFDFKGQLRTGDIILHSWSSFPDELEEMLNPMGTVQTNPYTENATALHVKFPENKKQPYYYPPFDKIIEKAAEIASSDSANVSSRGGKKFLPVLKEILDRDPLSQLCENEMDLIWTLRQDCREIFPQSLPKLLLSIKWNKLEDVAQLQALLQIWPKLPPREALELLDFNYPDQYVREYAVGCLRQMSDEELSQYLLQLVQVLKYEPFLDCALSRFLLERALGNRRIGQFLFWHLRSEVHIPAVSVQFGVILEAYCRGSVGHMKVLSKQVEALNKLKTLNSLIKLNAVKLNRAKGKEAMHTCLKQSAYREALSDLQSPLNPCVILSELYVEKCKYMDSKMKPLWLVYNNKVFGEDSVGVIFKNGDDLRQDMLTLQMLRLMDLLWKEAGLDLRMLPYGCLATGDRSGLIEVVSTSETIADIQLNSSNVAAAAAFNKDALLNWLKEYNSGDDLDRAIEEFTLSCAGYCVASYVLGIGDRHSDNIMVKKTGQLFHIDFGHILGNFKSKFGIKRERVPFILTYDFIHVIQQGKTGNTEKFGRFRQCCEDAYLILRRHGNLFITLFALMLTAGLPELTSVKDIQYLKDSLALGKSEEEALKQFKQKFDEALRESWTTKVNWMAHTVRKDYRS
Phosphatidylinositol 4,5-bisphosphate 3-kinase catalytic subunit alpha isoform, sequence (P42336 whole entry, canonical isoform): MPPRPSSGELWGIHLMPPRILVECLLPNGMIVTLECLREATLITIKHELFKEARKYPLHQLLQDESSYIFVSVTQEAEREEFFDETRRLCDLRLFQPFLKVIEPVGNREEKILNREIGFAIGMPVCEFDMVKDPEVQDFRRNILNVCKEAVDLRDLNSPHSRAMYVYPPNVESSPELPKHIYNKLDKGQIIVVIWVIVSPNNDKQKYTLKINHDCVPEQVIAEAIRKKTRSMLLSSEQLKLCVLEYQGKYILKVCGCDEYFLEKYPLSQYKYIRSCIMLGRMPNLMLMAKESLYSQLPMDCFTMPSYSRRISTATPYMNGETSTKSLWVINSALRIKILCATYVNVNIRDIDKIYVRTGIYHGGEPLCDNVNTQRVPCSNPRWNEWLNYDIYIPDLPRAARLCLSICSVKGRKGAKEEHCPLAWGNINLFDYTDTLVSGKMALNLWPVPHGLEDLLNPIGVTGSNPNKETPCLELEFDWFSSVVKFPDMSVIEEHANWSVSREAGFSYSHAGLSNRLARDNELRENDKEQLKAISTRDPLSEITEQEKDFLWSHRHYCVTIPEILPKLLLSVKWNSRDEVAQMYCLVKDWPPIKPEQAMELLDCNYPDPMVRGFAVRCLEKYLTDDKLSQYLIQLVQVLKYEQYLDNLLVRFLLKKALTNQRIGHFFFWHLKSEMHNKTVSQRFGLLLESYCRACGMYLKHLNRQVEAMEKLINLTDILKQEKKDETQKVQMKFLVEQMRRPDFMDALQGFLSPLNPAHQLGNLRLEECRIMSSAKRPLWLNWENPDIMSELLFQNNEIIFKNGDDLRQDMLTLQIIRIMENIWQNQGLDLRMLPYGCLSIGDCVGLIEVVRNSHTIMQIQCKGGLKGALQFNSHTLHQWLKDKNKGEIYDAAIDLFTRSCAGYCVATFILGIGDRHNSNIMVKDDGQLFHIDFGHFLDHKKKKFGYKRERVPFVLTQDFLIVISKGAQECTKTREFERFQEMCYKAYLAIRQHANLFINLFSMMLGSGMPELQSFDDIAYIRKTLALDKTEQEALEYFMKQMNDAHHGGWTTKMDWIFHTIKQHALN
AMP-activated protein kinase (AMPK) alpha-1/beta-1/gamma-1, sequence (P54619 whole entry): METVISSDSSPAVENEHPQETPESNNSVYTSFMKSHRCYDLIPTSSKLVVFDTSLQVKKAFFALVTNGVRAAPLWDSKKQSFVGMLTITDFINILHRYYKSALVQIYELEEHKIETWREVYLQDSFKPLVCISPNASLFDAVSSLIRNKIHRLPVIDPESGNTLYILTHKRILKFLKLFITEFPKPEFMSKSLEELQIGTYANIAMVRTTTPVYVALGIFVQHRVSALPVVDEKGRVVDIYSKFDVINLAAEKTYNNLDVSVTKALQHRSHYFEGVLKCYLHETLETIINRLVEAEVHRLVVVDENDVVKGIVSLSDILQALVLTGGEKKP
AMP-activated protein kinase (AMPK) alpha-1/beta-1/gamma-1, sequence (Q9Y478 whole entry): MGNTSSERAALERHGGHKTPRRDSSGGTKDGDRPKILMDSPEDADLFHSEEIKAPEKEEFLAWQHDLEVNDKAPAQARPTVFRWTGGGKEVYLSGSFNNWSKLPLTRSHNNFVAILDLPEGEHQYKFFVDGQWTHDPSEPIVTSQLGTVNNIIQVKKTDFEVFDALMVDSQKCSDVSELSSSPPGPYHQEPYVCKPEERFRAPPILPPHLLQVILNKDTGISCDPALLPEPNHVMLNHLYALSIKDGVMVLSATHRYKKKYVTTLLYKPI
AMP-activated protein kinase (AMPK) alpha-1/beta-1/gamma-1, sequence (Q13131 whole entry): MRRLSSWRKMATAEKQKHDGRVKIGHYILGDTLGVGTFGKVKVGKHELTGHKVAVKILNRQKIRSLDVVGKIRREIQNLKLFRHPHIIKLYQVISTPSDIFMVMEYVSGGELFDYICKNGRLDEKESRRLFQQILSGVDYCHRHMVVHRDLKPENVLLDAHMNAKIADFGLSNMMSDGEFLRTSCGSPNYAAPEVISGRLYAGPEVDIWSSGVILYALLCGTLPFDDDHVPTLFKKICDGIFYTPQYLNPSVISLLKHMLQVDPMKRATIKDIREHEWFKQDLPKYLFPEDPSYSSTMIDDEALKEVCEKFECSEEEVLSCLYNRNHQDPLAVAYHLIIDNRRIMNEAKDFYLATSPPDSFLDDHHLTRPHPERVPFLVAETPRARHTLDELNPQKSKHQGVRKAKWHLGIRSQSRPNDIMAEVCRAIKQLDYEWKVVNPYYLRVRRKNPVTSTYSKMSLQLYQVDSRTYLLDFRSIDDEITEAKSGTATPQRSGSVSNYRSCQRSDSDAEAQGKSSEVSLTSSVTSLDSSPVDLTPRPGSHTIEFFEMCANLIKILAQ
Phosphatidylinositol 4,5-bisphosphate 3-kinase catalytic subunit gamma isoform, sequence (P48736 whole entry, canonical isoform): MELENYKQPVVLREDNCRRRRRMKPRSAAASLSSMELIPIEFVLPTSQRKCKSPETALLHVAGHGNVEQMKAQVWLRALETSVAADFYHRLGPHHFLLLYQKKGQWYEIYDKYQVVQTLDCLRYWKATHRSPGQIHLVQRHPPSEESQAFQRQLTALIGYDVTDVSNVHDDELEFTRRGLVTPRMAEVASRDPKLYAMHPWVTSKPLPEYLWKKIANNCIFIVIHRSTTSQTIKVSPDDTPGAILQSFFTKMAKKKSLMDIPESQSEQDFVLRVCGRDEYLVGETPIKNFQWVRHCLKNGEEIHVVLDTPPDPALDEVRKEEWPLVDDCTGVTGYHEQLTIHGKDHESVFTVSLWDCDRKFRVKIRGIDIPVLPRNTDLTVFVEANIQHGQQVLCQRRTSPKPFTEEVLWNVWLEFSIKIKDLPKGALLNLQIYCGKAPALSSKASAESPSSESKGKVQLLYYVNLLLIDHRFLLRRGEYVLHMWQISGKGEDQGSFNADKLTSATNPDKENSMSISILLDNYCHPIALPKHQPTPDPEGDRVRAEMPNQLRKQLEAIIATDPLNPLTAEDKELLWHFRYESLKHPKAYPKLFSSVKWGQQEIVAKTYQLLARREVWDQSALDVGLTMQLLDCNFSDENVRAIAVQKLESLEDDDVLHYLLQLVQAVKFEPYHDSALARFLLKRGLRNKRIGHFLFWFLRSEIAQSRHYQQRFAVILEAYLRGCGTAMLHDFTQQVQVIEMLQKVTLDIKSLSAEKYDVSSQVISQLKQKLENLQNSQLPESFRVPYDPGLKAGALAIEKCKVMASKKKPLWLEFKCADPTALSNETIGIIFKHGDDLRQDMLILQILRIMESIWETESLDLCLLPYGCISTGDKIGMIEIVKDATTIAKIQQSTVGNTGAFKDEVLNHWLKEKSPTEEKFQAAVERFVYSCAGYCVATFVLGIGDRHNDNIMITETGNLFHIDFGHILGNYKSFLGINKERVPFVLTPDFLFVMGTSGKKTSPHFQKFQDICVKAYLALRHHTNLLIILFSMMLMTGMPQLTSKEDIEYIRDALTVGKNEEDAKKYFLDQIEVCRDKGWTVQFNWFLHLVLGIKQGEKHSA

`CN1CCN(Cc2cc(CNC3(c4ccccc4F)CCCC3)ccc2O)CC1` gave a pKa in series [1] of over 7.5. In the series on BT-474, the IC50 lay in the range of 23.5 to 30.1 µM.
On to `CNC(=O)c1ccccc1Oc1nc(Nc2cc(OC)c(OC)c(OC)c2)ncc1Br`, for which the IC50 in series [2] amounted to 0.011 µM.
On to `CN1CCc2cc(Nc3ncc(C4CC4)c(NCCCNC(=O)C4CCC4)n3)ccc2C1`, for which the IC50 in series [3] was 0.0029 µM; in series [4] it was 0.0011 µM.
Take `O=C(/C=C/c1ccc2c(c1)OCO2)CC1(O)C(=O)Nc2ccccc21` (centres undefined): the concentration for half-maximal inhibition (IC50) against mTORC1 and on mTORC2 was 0.001 to 0.005 µM in each case.
For `COC(=O)Nc1ccc(-c2nc(N3CCOCC3)c3cnn(C4CCN(C(=O)OC)CC4)c3n2)cc1`, the IC50 against mTORC1 and against mTORC2 was 0.005 to 0.009 µM throughout.
Turning to `CC1(CN2C(=O)S/C(=C\c3ccc(NS(=O)(=O)c4ccc([N+](=O)[O-])c(C(F)(F)F)c4)cc3)C2=O)CCCCC1`, the concentration for a half-maximal effect (EC50) in series [5] came out at 0.3 µM.
With `CCN(CC)CCCC(C)Nc1ccnc2cc(Cl)ccc12` (centres undefined) [CHLOROQUINE], in the series on BT-474, the half-inhibitory concentration (IC50) is over 1000 µM.
In the case of `COC(=O)Nc1nc2cc(C(=O)c3ccc(F)cc3)ccc2[nH]1` [FLUBENDAZOLE], the Activity in the series on MDA-MB-231 is 50%.
With `c1cnc2ccc(Nc3nc(NC4CC4)c4nc[nH]c4n3)cc2c1` [PUQUITINIB MESYLATE DIHYDRATE], the IC50 in [6] was determined as 0.767 µM; in [7] it was 0.699 µM; in [8], 0.0028 µM; with CNE-2, 5.2 µM; in [9], 0.0897 µM.
On to `CCN(CC)CCCC(C)Nc1c2ccc(Cl)cc2nc2ccc(OC)cc12` (centres undefined) [QUINACRINE], for which the EC in the series with U2OS was 0.2 µM. Further, in series [10], the CC50 is 2.5 µM.

Source of the values: ChEMBL document CHEMBL4308824, “Design of Small Molecule Autophagy Modulators: A Promising Druggable Strategy” (J Med Chem, 2018).
